According to US20160136110A1, “Method for Treating a Neurodegenerative Event” (MAKScientific, LLC, priority 2012, published 2016):

Legend:
[1] = target: T1, rat and/or human FAAH enzyme (UniProt P97612); assay: FAAH inhibition assay; assay type: biochemical; conditions: rat or human FAAH inhibition assay as in Rahn et al. (2011)
T1 sequence (P97612 1-579): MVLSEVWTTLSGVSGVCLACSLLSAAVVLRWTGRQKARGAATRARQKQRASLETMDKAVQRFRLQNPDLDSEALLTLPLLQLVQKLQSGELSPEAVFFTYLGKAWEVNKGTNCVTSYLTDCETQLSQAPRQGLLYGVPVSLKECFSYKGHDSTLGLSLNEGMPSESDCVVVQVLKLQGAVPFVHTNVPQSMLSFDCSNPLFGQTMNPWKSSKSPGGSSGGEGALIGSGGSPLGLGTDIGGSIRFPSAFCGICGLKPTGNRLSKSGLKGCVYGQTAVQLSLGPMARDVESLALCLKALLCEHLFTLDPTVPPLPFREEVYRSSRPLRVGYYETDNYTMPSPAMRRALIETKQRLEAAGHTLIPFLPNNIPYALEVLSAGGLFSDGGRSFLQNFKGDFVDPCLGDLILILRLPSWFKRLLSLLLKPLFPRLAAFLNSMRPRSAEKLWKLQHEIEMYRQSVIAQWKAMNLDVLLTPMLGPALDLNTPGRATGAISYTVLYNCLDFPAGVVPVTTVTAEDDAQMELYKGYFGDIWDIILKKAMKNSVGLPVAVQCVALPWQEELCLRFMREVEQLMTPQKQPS
Description: Biochem and Behavior 98: 493. […] Particular FAAH inhibitor compounds for use with the invention include those disclosed in the following references: Deng, H (2010) Expert Opin. Drug Discovery 5(10): 961-993 and Blankman (2013) Pharmacol Rev 65:849-871, Seierstad (2008) J. Med. Chem., 51 (23), pp 7327-7343, Ahn (2009) Expert Opin. Drug Discov. 4(7):763-784 and references cited therein.

[2] = tested on: GDNF; assay: GDNF ELISA of hippocampus after kainic acid injection; assay type: in vivo, rat; conditions: young rats (PND 22), kainic acid i.p. followed by 8 mg/kg i.p., 24 h; vs vehicle, p<0.02; FIG. 1A
Method: (§1) Young rats (PND 22) were injected i.p. with kainic acid (KA), followed immediately by vehicle (veh) or the FAAH inhibitor, Compound 1 (8 mg/kg, i.p.). After 24 h, hippocampus was rapidly dissected, and the homogenates were centrifuged to obtain supernatant for ELISA measures of GDNF) and BDNF. Standard curves were used to convert measures to pg cytokine per mg supernatant protein (±SEM). Unpaired t-tests: GDNF, *p<0.02; BDNF, ***p<0.001.

[3] = tested on: BDNF; assay: BDNF ELISA of hippocampus after kainic acid injection; assay type: in vivo, rat; conditions: young rats (PND 22), kainic acid i.p. followed by 8 mg/kg i.p., 24 h; vs vehicle, p<0.001; FIG. 1B
Method: as §1

## O=C(CCCOc1ccc(OCc2ccccc2)cc1)C(F)(F)F [Compound 1, 5-(4-(benzyloxy)phenoxy)-1,1,1-trifluoropentan-2-one]
[1]
  IC50: 42 nM
[2]
  GDNF levels in hippocampus (ELISA): enhances GDNF levels
[3]
  BDNF levels in hippocampus (ELISA): protects against excitotoxin-induced reduction in BDNF
